# From the supplement of paper PMC10307832
# Tests used:
# Test in all cases: relative viability (nuclei count vs DMSO), 5 days (fraction); higher = more cells survive
# 201T = test system: 201T
# Procedure, shortened: (§1)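 Values are medians from duplicate plates. Each reflects relative viability, defined as the nuclei count of treated wells over that of vehicle wells. Lung cancer cell lines in 1536-well plates were pin-tool dosed one day after seeding with one drug alone or with a fixed anchor-drug dose plus five library-drug doses (not always all listed) in √10 steps, then fixed, stained and imaged at 4× after 5 days.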
# A-427 = test system: A-427
# Procedure, shortened: as §1
# COR-L 105 = test system: COR-L 105
# Procedure, shortened: as §1
# COR-L23 = test system: COR-L23
# Procedure, shortened: as §1
# EKVX = test system: EKVX
# Procedure, shortened: as §1
# HARA = test system: HARA
# Procedure, shortened: as §1
# HCC-15 = test system: HCC-15
# Procedure, shortened: as §1
# HCC-44 = test system: HCC-44
# Procedure, shortened: as §1
# HCC-827 = test system: HCC-827
# Procedure, shortened: as §1
# LCLC-103H = test system: LCLC-103H
# Procedure, shortened: as §1
# LK-2 = test system: LK-2
# Procedure, shortened: as §1
# NCI-H1437 = test system: NCI-H1437
# Procedure, shortened: as §1
# NCI-H1666 = test system: NCI-H1666
# Procedure, shortened: as §1
# NCI-H1792 = test system: NCI-H1792
# Procedure, shortened: as §1
# NCI-H1975 = test system: NCI-H1975
# Procedure, shortened: as §1
# NCI-H23 = test system: NCI-H23
# Procedure, shortened: as §1
# NCI-H441 = test system: NCI-H441
# Procedure, shortened: as §1
# NCI-H520 = test system: NCI-H520
# Procedure, shortened: as §1
# NCI-H522 = test system: NCI-H522
# Procedure, shortened: as §1
# NCI-H596 = test system: NCI-H596
# Procedure, shortened: as §1
# NCI-H650 = test system: NCI-H650
# Procedure, shortened: as §1
# NCI-H838 = test system: NCI-H838
# Procedure, shortened: as §1
# SK-MES-1 = test system: SK-MES-1
# Procedure, shortened: as §1
# SW 900 = test system: SW 900
# Procedure, shortened: as §1
compound,measurement,setting,value
Clc1ccc(Nc2nnc(Cc3ccncc3)c3ccccc23)cc1 [Vatalanib] + N=C(N)NC(=N)NCCc1ccccc1 [Phenformin] (partner 250 µM),relative viability,201T; first compound 0.04 µM,0.436
same,relative viability,201T; first compound 0.1265 µM,0.451
same,relative viability,201T; first compound 0.4 µM,0.437
same,relative viability,201T; first compound 1.265 µM,0.405
same,relative viability,201T; first compound 4 µM,0.431
same,relative viability,A-427; first compound 0.04 µM,0.427
same,relative viability,A-427; first compound 0.1265 µM,0.295
same,relative viability,A-427; first compound 0.4 µM,0.285
same,relative viability,A-427; first compound 1.265 µM,0.31
same,relative viability,A-427; first compound 4 µM,0.298
same,relative viability,COR-L 105; first compound 0.04 µM,0.469
same,relative viability,COR-L 105; first compound 0.1265 µM,0.37
same,relative viability,COR-L 105; first compound 0.4 µM,0.475
same,relative viability,COR-L 105; first compound 1.265 µM,0.45
same,relative viability,COR-L 105; first compound 4 µM,0.423
same,relative viability,COR-L23; first compound 0.04 µM,0.442
same,relative viability,COR-L23; first compound 0.1265 µM,0.43
same,relative viability,COR-L23; first compound 0.4 µM,0.467
same,relative viability,COR-L23; first compound 1.265 µM,0.389
same,relative viability,COR-L23; first compound 4 µM,0.402
same,relative viability,EKVX; first compound 0.04 µM,0.232
same,relative viability,EKVX; first compound 0.1265 µM,0.236
same,relative viability,EKVX; first compound 0.4 µM,0.205
same,relative viability,EKVX; first compound 4 µM,0.212
same,relative viability,HARA; first compound 0.04 µM,0.452
same,relative viability,HARA; first compound 0.1265 µM,0.397
same,relative viability,HARA; first compound 0.4 µM,0.497
same,relative viability,HARA; first compound 1.265 µM,0.42
same,relative viability,HARA; first compound 4 µM,0.354
same,relative viability,HCC-15; first compound 0.04 µM,0.487
same,relative viability,HCC-15; first compound 0.1265 µM,0.46
same,relative viability,HCC-15; first compound 0.4 µM,0.441
same,relative viability,HCC-15; first compound 1.265 µM,0.443
same,relative viability,HCC-15; first compound 4 µM,0.457
same,relative viability,HCC-44; first compound 0.04 µM,0.178
same,relative viability,HCC-44; first compound 0.1265 µM,0.257
same,relative viability,HCC-44; first compound 0.4 µM,0.0876
same,relative viability,HCC-44; first compound 1.265 µM,0.182
same,relative viability,HCC-44; first compound 4 µM,0.147
same,relative viability,HCC-827; first compound 0.04 µM,0.413
same,relative viability,HCC-827; first compound 0.1265 µM,0.418
same,relative viability,HCC-827; first compound 0.4 µM,0.304
same,relative viability,HCC-827; first compound 1.265 µM,0.425
same,relative viability,HCC-827; first compound 4 µM,0.378
same,relative viability,LCLC-103H; first compound 0.04 µM,0.339
same,relative viability,LCLC-103H; first compound 0.1265 µM,0.306
same,relative viability,LCLC-103H; first compound 0.4 µM,0.373
same,relative viability,LCLC-103H; first compound 1.265 µM,0.363
same,relative viability,LCLC-103H; first compound 4 µM,0.316
same,relative viability,LK-2; first compound 0.04 µM,0.408
same,relative viability,LK-2; first compound 0.1265 µM,0.398
same,relative viability,LK-2; first compound 0.4 µM,0.381
same,relative viability,LK-2; first compound 1.265 µM,0.466
same,relative viability,LK-2; first compound 4 µM,0.393
same,relative viability,NCI-H1437; first compound 0.04 µM,0.341
same,relative viability,NCI-H1437; first compound 0.1265 µM,0.281
same,relative viability,NCI-H1437; first compound 0.4 µM,0.298
same,relative viability,NCI-H1437; first compound 1.265 µM,0.247
same,relative viability,NCI-H1437; first compound 4 µM,0.273
same,relative viability,NCI-H1666; first compound 0.04 µM,0.563
same,relative viability,NCI-H1666; first compound 0.1265 µM,0.566
same,relative viability,NCI-H1666; first compound 0.4 µM,0.449
same,relative viability,NCI-H1666; first compound 1.265 µM,0.519
same,relative viability,NCI-H1666; first compound 4 µM,0.559
same,relative viability,NCI-H1792; first compound 0.04 µM,0.257
same,relative viability,NCI-H1792; first compound 0.4 µM,0.224
same,relative viability,NCI-H1792; first compound 1.265 µM,0.236
same,relative viability,NCI-H1792; first compound 4 µM,0.386
same,relative viability,NCI-H1975; first compound 0.04 µM,0.405
same,relative viability,NCI-H1975; first compound 0.1265 µM,0.415
same,relative viability,NCI-H1975; first compound 0.4 µM,0.422
same,relative viability,NCI-H1975; first compound 1.265 µM,0.357
same,relative viability,NCI-H1975; first compound 4 µM,0.4
same,relative viability,NCI-H23; first compound 0.04 µM,0.742
same,relative viability,NCI-H23; first compound 0.1265 µM,0.719
same,relative viability,NCI-H23; first compound 0.4 µM,0.78
same,relative viability,NCI-H23; first compound 1.265 µM,0.714
same,relative viability,NCI-H23; first compound 4 µM,0.748
same,relative viability,NCI-H441; first compound 0.04 µM,0.904
same,relative viability,NCI-H441; first compound 0.1265 µM,0.761
same,relative viability,NCI-H441; first compound 0.4 µM,0.849
same,relative viability,NCI-H441; first compound 1.265 µM,0.729
same,relative viability,NCI-H441; first compound 4 µM,0.819
same,relative viability,NCI-H520; first compound 0.04 µM,0.722
same,relative viability,NCI-H520; first compound 0.1265 µM,0.412
same,relative viability,NCI-H520; first compound 0.4 µM,0.83
same,relative viability,NCI-H520; first compound 1.265 µM,0.493
same,relative viability,NCI-H520; first compound 4 µM,0.479
same,relative viability,NCI-H522; first compound 0.04 µM,0.699
same,relative viability,NCI-H522; first compound 0.1265 µM,0.531
same,relative viability,NCI-H522; first compound 0.4 µM,0.673
same,relative viability,NCI-H522; first compound 1.265 µM,0.623
same,relative viability,NCI-H522; first compound 4 µM,0.597
same,relative viability,NCI-H596; first compound 0.04 µM,0.715
same,relative viability,NCI-H596; first compound 0.1265 µM,0.874
same,relative viability,NCI-H596; first compound 0.4 µM,0.769
same,relative viability,NCI-H596; first compound 1.265 µM,0.767
same,relative viability,NCI-H596; first compound 4 µM,0.662
same,relative viability,NCI-H650; first compound 0.04 µM,0.473
same,relative viability,NCI-H650; first compound 0.1265 µM,0.427
same,relative viability,NCI-H650; first compound 1.265 µM,0.446
same,relative viability,NCI-H650; first compound 4 µM,0.439
same,relative viability,NCI-H838; first compound 0.04 µM,0.607
same,relative viability,NCI-H838; first compound 0.1265 µM,0.476
same,relative viability,NCI-H838; first compound 0.4 µM,0.69
same,relative viability,NCI-H838; first compound 1.265 µM,0.563
same,relative viability,NCI-H838; first compound 4 µM,0.548
same,relative viability,SK-MES-1; first compound 0.04 µM,0.659
same,relative viability,SK-MES-1; first compound 0.1265 µM,0.638
same,relative viability,SK-MES-1; first compound 0.4 µM,0.753
same,relative viability,SK-MES-1; first compound 1.265 µM,0.572
same,relative viability,SK-MES-1; first compound 4 µM,0.537
same,relative viability,SW 900; first compound 0.1265 µM,0.689
same,relative viability,SW 900; first compound 0.4 µM,0.539
same,relative viability,SW 900; first compound 1.265 µM,0.458
same,relative viability,SW 900; first compound 4 µM,0.544
